Here are results for 4 compounds from US9695155B2, “Herbicidal substituted pyrimidinyloxy benzene compounds” (E. I. DU PONT DE NEMOURS AND COMPANY, priority 2013, dated 2017).

The structures appear in SMILES notation.

For one test, the system named is bromegrass, downy. As to the kind of experiment: Test D postemergence. In kind it is in vivo, Bromus tectorum. The conditions noted are these: for pest or weed control at 16 g/ha / pest or weed control at 31 g/ha / pest or weed control at 62 g/ha / pest or weed control at 125 g/ha: Bromus tectorum, post-emergence, read-out: Plant response rating, Bromegrass, Downy. The text has this: (§1) Seeds of plant species selected from bluegrass (annual bluegrass, Poa annua), blackgrass (Alopecurus myosuroides), canarygrass (littleseed canarygrass, Phalaris minor), chickweed (common chickweed, Stellaria media), galium (catchweed bedstraw, Galium aparine), bromegrass, downy (downy bromegrass, Bromus tectorum), field poppy (Papaver rhoeas), field violet (Viola arvensis), green foxtail (Setaria viridis), deadnettle (henbit deadnettle, Lamium amplexicaule), Italian ryegrass (Lolium multiflorum), kochia (Kochia scoparia), lambsquarters (Chenopodium album), oilseed rape (Brassica napus), pigweed (Amaranthus retroflexus), chamomile (scentless chamomile, Matricaria inodora), Russian thistle (Salsola kali), speedwell (bird's-eye speedwell, Veronica persica), spring barley (Hordeum vulgare), spring wheat (Triticum aestivum), wild buckwheat (Polygonum convolvulus), wild mustard (Sinapis arvensis), wild oat (Avena fatua), wild radish (Raphanus raphanistrum), windgrass (Apera spica-venti), winter barley (Hordeum vulgare), and winter wheat (Triticum aestivum) were planted into a silt loam soil and treated preemergence with test chemicals formulated in a non-phytotoxic solvent mixture which included a surfactant.
(§2) At the same time, these species were planted in pots containing Redi-Earth® planting medium (Scotts Company, 14111 Scottslawn Road, Marysville, Ohio 43041) comprising spaghnum peat moss, vermiculite, wetting agent and starter nutrients and treated with postemergence applications of the test chemicals formulated in the same manner. Plants ranged in height from 2 to 18 cm (1- to 4-leaf stage). Treated plants and controls were maintained in a controlled growth environment for 7 to 21 days after which time all species were compared to controls and visually evaluated. Plant response ratings, summarized in Table D, are based on a scale of 0 to 100 where 0 is no effect and 100 is complete control. A dash (-) response means no test result.

The subject of a further test is barnyardgrass. The test can be described thus: Test F preemergence. In kind it is in vivo, Echinochloa crus-galli. The settings on record: 21 days, scale 0 to 100. An excerpt:
(§3) Seeds of plant species selected from bermudagrass (Cynodon dactylon), surinam grass (Brachiaria decumbens), large (Lg) crabgrass (Digitaria sanguinalis), crabgrass, naked (naked crabgrass, Digitaria nuda), foxtail, green (green foxtail, Setaria viridis), johnsongrass (Sorghum halepense), kochia (Kochia scoparia), morningglory (pitted morningglory, Ipomoea lacunosa), nutsedge, purple (purple nutsedge, Cyperus rotundus), ragweed (common ragweed, Ambrosia elatior), mustard, black (black mustard, Brassica nigra), guineagrass (Panicum maximum), dallisgrass (Paspalum dilatatum), barnyardgrass (Echinochloa crus-galli), sandbur (southern sandbur, Cenchrus echinatus), sowthistle (common sowthistle, Sonchus oleraceous), Italian ryegrass (Lolium multiflorum), signalgrass (broadleaf signalgrass, Brachiaria platyphylla), dayflower (Virginia (VA) dayflower, Commelina virginica), bluegrass (annual bluegrass, Poa annua), quackgrass (Elytrigia repens), mallow (common mallow, Malva sylvestris), buckwheat, wild (wild buckwheat, Polygonum convolvulus), leafy spurge (Euphorbia esula), chickweed (common chickweed, Stellaria media), wild poinsettia (Euphorbia heterophylla), and pigweed (Amaranthus retroflexus) were planted into a blend of loam soil and sand and treated preemergence with test chemicals formulated in a non-phytotoxic solvent mixture which included a surfactant.
(§4) Treated plants and controls were maintained in a greenhouse for 21 days, after which time all species were compared to controls and visually evaluated. Plant response ratings, summarized in Table F, are based on a scale of 0 to 100 where 0 is no effect and 100 is complete control. A dash (-) response means no test result.

The subject of the next test is wild mustard. As to the kind of experiment: Test D preemergence. The format is in vivo, Sinapis arvensis. The settings on record: for pest or weed control at 16 g/ha / pest or weed control at 31 g/ha / pest or weed control at 62 g/ha / pest or weed control at 125 g/ha: Brassica, pre-emergence; for pest or weed control at 16 g/ha: read-out: Plant response rating, Mustard, Wild; for pest or weed control at 31 g/ha / pest or weed control at 62 g/ha / pest or weed control at 125 g/ha: scale 0-100, read-out: Plant response rating, Mustard, Wild.
Source text: as §1, §2

The test system of another test is bluegrass. As to the kind of experiment: Test F preemergence. The format is in vivo, Poa annua. The conditions noted are these: 21 days, scale 0 to 100.
Source text: as §3, §4

For another test, the system named is chamomile. As to the kind of experiment: Test D postemergence. The format is in vivo, Matricaria inodora. The settings on record: for pest or weed control at 16 g/ha / pest or weed control at 31 g/ha / pest or weed control at 62 g/ha / pest or weed control at 125 g/ha: Tripleurospermum inodorum, post-emergence; for pest or weed control at 16 g/ha: scale 0-100, read-out: Plant response rating, Chamomile; for pest or weed control at 31 g/ha / pest or weed control at 62 g/ha / pest or weed control at 125 g/ha: read-out: Plant response rating, Chamomile.
Source text: as §1, §2

Another test has as its system wild buckwheat. The test can be described thus: Test D preemergence. The settings on record: for pest or weed control at 16 g/ha / pest or weed control at 31 g/ha / pest or weed control at 62 g/ha / pest or weed control at 125 g/ha: Fallopia convolvulus, pre-emergence; for pest or weed control at 16 g/ha: read-out: Plant response rating, Buckwheat, Wild; for pest or weed control at 31 g/ha / pest or weed control at 62 g/ha / pest or weed control at 125 g/ha: scale 0-100, read-out: Plant response rating, Buckwheat, Wild. The format is in vivo, Polygonum convolvulus.
Source text: as §1, §2

The subject of a further test is green foxtail. The test can be described thus: Test D preemergence. The format is in vivo, Setaria viridis. The settings on record: for pest or weed control at 16 g/ha / pest or weed control at 31 g/ha / pest or weed control at 62 g/ha / pest or weed control at 125 g/ha: Setaria viridis, pre-emergence; for pest or weed control at 16 g/ha: read-out: Plant response rating, Foxtail, Green; for pest or weed control at 31 g/ha / pest or weed control at 62 g/ha / pest or weed control at 125 g/ha: scale 0-100, read-out: Plant response rating, Foxtail, Green.
Source text: as §1, §2

The mark [1] stands for this setting: Postemergence, 16 g ai/ha, scale 0 to 100 (0 no effect, 100 complete control).
The mark [2] stands for this setting: Postemergence, 31 g ai/ha, scale 0 to 100 (0 no effect, 100 complete control).
[3] abbreviates: Postemergence, 62 g ai/ha, scale 0 to 100 (0 no effect, 100 complete control).
The mark [4] stands for this setting: Postemergence, 125 g ai/ha, scale 0 to 100 (0 no effect, 100 complete control).
Setting [5] is: 16 g ai/ha, scale 0 (no effect) to 100 (complete control).
[6] abbreviates: 31 g ai/ha, scale 0 to 100 (0 no effect, 100 complete control).
Where [7] appears, read: 62 g ai/ha, scale 0 to 100 (0 no effect, 100 complete control).
[8] abbreviates: 125 g ai/ha, scale 0 to 100 (0 no effect, 100 complete control).

`N#Cc1cccc(Oc2ncc(Cl)cn2)c1-n1cc(OCC(F)(F)F)cn1` [Compound 274, 3-[(5-chloro-2-pyrimidinyl)oxy]-2-[4-(2,2,2-trifluoroethoxy)-1H-pyrazol-1-yl]benzonitrile]: the pest or weed control at 16 g/ha in the test on bromegrass, downy (setting [1]) turned out to be 20%; in the test on wild mustard (setting [5]), 15%; in the test on chamomile (16 g ai/ha), 5%; in the test with wild buckwheat (setting [5]), 10%; in the test on green foxtail (setting [5]), 15%. Moreover, the pest or weed control at 31 g/ha in the test with bromegrass, downy (setting [2]) was found to be 25%; in the test on wild mustard (31 g ai/ha), 25%; in the test on chamomile (setting [6]) it was 10%; in the test with wild buckwheat (31 g ai/ha), 100%; in the test on green foxtail (31 g ai/ha), 75%. For the same compound, the pest or weed control at 62 g/ha stood at 35% with bromegrass, downy (setting [3]); 95% with wild mustard (62 g ai/ha); 25% in the test with chamomile (setting [7]); 100% in the test with wild buckwheat (62 g ai/ha); 100% in the test on green foxtail (62 g ai/ha). The pest or weed control at 125 g/ha in the test on bromegrass, downy (setting [4]) was found to be 40%; in the test with wild mustard (125 g ai/ha), 100%; in the test on chamomile (setting [8]), 25%; in the test on wild buckwheat (125 g ai/ha), 100%; in the test on green foxtail (125 g ai/ha) it was 100%. Also, the “Plant response rating, Barnyardgrass” value was 75 with barnyardgrass (16 g ai/ha); 100 in the test with barnyardgrass (31 g ai/ha); 100 in the test with barnyardgrass (62 g ai/ha); 100 in the test with barnyardgrass (125 g ai/ha); 100 in the test with barnyardgrass (250 g ai/ha). Also, the “Plant response rating, Bluegrass” value with bluegrass (16 g ai/ha) stood at 0; in the test with bluegrass (31 g ai/ha), 20; in the test on bluegrass (62 g ai/ha), 50; in the test on bluegrass (125 g ai/ha), 85; in the test on bluegrass (250 g ai/ha) it was 100.

As to `Fc1cccc(Oc2ncc(Cl)cn2)c1-n1cc(C(F)F)nn1` [Compound 141, 5-chloro-2-[2-[4-(difluoromethyl)-1H-1,2,3-triazol-1-yl]-3-fluorophenoxy]pyrimidine], the pest or weed control at 16 g/ha in the test on bromegrass, downy (setting [1]) was 15%; in the test on wild mustard (setting [5]), 90%; in the test on chamomile (16 g ai/ha), 10%; in the test on wild buckwheat (setting [5]), 100%; in the test with green foxtail (setting [5]), 10%. Besides, the pest or weed control at 31 g/ha was determined as 20% in the test with bromegrass, downy (setting [2]); 100% in the test on wild mustard (31 g ai/ha); 20% with chamomile (setting [6]); 100% in the test with wild buckwheat (31 g ai/ha); 100% with green foxtail (31 g ai/ha). The pest or weed control at 62 g/ha in the test with bromegrass, downy (setting [3]) was 30%; in the test on wild mustard (62 g ai/ha), 100%; in the test on chamomile (setting [7]), 15%; with wild buckwheat (62 g ai/ha), 100%; in the test with green foxtail (62 g ai/ha), 100%. Also, the pest or weed control at 125 g/ha with bromegrass, downy (setting [4]) worked out at 45%; with wild mustard (125 g ai/ha), 100%; in the test on chamomile (setting [8]), 20%; in the test with wild buckwheat (125 g ai/ha), 100%; in the test with green foxtail (125 g ai/ha), 100%.

Turning to `FCc1cccc(Oc2ncc(Cl)cn2)c1-n1cc(I)cn1` [Compound 245], the “Plant response rating, Bromegrass, Downy” value was determined as 25 with bromegrass, downy (setting [3]); 20 in the test on bromegrass, downy (setting [2]); 30 in the test with bromegrass, downy (setting [4]); 20 in the test on bromegrass, downy (postemergence, 16 g ai/ha, scale 0 to 100, 0 no effect, 100 complete control). Further, the “Plant response rating, Mustard, Wild” value with wild mustard (setting [5]) was 80; in the test on wild mustard (31 g ai/ha, scale 0-100), 80; in the test with wild mustard (62 g ai/ha, scale 0-100), 85; in the test with wild mustard (125 g ai/ha, scale 0-100) it was 100. In addition, the “Plant response rating, Chamomile” value in the test with chamomile (16 g ai/ha, scale 0-100) worked out at 30; in the test with chamomile (setting [6]), 30; in the test with chamomile (setting [7]), 45; with chamomile (setting [8]) it was 40. The “Plant response rating, Buckwheat, Wild” value with wild buckwheat (setting [5]) was 25; in the test with wild buckwheat (31 g ai/ha, scale 0-100), 0; in the test with wild buckwheat (62 g ai/ha, scale 0-100) it was 25; in the test on wild buckwheat (125 g ai/ha, scale 0-100) it was 35. Besides, the “Plant response rating, Foxtail, Green” value in the test on green foxtail (setting [5]) is 0; with green foxtail (31 g ai/ha, scale 0-100), 0; in the test with green foxtail (62 g ai/ha, scale 0-100) it was 0; in the test with green foxtail (125 g ai/ha, scale 0-100), 35.

As to `N#Cc1cccc(Oc2ncc(Cl)cn2)c1-n1cc(OC(F)F)cn1` [Compound 97], the “Plant response rating, Barnyardgrass” value in the test with barnyardgrass (16 g ai/ha) is 0; with barnyardgrass (31 g ai/ha), 90; in the test with barnyardgrass (62 g ai/ha) it was 95; in the test on barnyardgrass (125 g ai/ha), 100; in the test with barnyardgrass (250 g ai/ha), 100. Also, the “Plant response rating, Bluegrass” value in the test on bluegrass (16 g ai/ha) was 5; in the test on bluegrass (31 g ai/ha), 35; in the test on bluegrass (62 g ai/ha), 75; with bluegrass (125 g ai/ha) it was 98; with bluegrass (250 g ai/ha) it was 100.
